# Where “and” joins values, the source holds several entries; their conditions need not be identical. Equal values may be shown once. Read-outs that look alike come from different tables or passages of the source. Ends that are not written are not given here.
# Columns and labels:
# [1] = test system: CD-1 mouse plasma proteins; assay: Protein binding in CD-1 mouse plasma (ultracentrifugation); conditions: CD-1 mouse plasma (K2EDTA); 2 μM; 2.5 h at 37 °C
# [2] = CYP450 time-dependent inhibition, all isoenzymes together; type: in vitro ADME, human; conditions: all isoenzymes; +/− NADPH, with and without 30-min preincubation; read-out: Inhibition of CYP450 isoenzymes at 50 µM (maximum test concentration)
# [3] = test system: CYP450 isoenzymes (1A2, 2B6, 2C8, 2C9, 2C19, 2D6 and 3A4); assay: as above; type: in vitro ADME, human
# [4] = test system: CYP2B6; assay: CYP2B6 induction (enzyme activity) in single-donor human hepatocytes; conditions: for Fold Increase (Enzyme Activity) Mean: mean of three lots
# Method: The transport medium was replaced with 200 μL of warm (37 °C) incubation medium (InVitroGRO HI, BioIVT Catalog No. Z99009) and the plate was placed in a humidified 5% carbon dioxide incubator at 37 °C for 24 h.
# In addition, test article vehicle (PBS) was added to warm (37°C) InVitroGRO HI Medium in a 5:95 (v:v) ratio. […] The plates were removed from the incubator and the hepatocytes were prepared for the induction assay by replacing the cell culture medium with medium containing either the test article, a control inducer, or vehicle control (200 µL per well). The hepatocyte plates were returned to the cell culture incubator and incubated for 24 h.
# On Day 3, induction was repeated following the same steps as described above for the previous day, and plates were returned to the cell culture incubator for an additional 24 h.
# After aliquots were taken to measure test article stability, all the remaining medium from each well in the hepatocyte plate was removed, all wells were washed once using 200 μL of blank assay buffer, and then 100 μL of the 1000-fold diluted substrate solutions were added to the appropriate wells. The assay plate was returned to the humidified 5% carbon dioxide incubator at 37 °C for 1 h incubation.
# At the end of the incubation time, 100 μL of mRNA lysis buffer was added to each well to stop the reaction. Fifty microliters of this reaction mixture were transferred into a new plate and quenched with 200 μL of ice-cold acetonitrile containing a CYP-specific stable labeled internal standard (250 ng/mL acetaminophen-d4, 250 ng/mL hydroxybupropion-d6, or 250 ng/mL hydroxytestosterone-d3). After removal of the aliquots from the plate for enzyme activity determination, the assay plates were sealed and stored in a −70 °C freezer until use for RT-PCR, mRNA analysis.
# For the induction assay samples, an aliquot (50 µL) of the supernatant was transferred to a new plate and diluted with 100 µL Milli-Q water. For the test article stability samples, an aliquot (50 µL) of the supernatant was transferred to a new plate and diluted with 60 µL 0.1% formic acid in Milli-Q water. These samples for the enzyme activity assay and article stability test were refrigerated for storage until analysis. […]
# HM1010: Induction Potential of Cytochrome P450 Enzymes
# (CYP1A2, CYP2B6 and CYP3A4) Using Human Cryopreserved Hepatocytes
# Testing Facility Study No.
# The purpose of this in-vitro study was to determine the induction potential of HM1010 on human
# cytochrome P450 (CYP) isoenzyme (1A2, 2B6 and 3A4) activity. The study design is
# Matrix: Inducible cryopreserved human hepatocytes three single-donor lots
# Assay Buffer: InVitroGRO KHB
# Substrates: Phenacetin (1A2), Bu propion (2B6), and Testosterone (3A4)
# Assay conditions: 48 hours at 37°C in humidified 5% carbon dioxide incubator
# Analysis: LC-MS/MS (enzyme activity) and mRNA analysis
# [5] = Metabolic stability in cryopreserved beagle dog hepatocytes; type: in vitro ADME; conditions: Beagle dog hepatocytes 0.5 million cells/mL; for CLint scaled: dog, hepatocytes, 2 μM
# [6] = target: T1, CYP1A2 (Homo sapiens, UniProt P05177); conditions: microsomes
# T1 sequence (P05177 1-516): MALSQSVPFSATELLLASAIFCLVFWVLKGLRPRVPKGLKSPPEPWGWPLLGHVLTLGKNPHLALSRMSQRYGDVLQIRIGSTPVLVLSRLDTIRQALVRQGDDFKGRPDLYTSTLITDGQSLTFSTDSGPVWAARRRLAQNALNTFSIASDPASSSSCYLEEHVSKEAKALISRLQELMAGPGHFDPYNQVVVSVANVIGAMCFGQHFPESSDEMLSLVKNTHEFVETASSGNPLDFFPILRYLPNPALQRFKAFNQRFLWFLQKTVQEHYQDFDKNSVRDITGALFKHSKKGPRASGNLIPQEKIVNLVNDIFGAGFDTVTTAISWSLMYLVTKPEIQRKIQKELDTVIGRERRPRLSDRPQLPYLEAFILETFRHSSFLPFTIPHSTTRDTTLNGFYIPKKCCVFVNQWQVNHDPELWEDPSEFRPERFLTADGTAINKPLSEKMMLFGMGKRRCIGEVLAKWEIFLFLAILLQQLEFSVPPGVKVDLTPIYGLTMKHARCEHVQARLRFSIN
# [7] = target: T2, CYP2C8 (Homo sapiens, UniProt P10632); conditions: microsomes
# T2 sequence (P10632 1-490): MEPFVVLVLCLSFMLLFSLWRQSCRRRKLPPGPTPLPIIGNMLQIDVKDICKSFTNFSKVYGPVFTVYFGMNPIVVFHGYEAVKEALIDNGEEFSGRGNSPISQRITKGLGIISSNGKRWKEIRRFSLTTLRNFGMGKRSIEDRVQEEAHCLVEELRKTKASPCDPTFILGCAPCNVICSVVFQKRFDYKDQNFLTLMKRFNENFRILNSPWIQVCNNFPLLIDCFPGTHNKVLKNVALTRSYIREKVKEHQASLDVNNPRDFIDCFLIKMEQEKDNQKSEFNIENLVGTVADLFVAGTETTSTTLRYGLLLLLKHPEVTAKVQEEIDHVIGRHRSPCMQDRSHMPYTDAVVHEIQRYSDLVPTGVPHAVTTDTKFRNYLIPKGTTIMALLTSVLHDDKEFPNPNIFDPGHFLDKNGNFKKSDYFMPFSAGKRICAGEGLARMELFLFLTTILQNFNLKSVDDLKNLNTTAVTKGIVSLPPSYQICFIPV
# [8] = in vitro; conditions: cynomolgus monkey, plasma, pH 7.4
# Method: Samples were tested at 2 μM.
# The supernatant was removed and incubated at 37 °C for at least 10 min before use. The pH of each matrix was checked and adjusted to pH 7.4 using 10% phosphoric acid or 1 N sodium hydroxide as necessary.
# Test and control article stock solutions were spiked (1.5 µL) into matrix (0.749 mL) to a final assay concentration of 2 µM and mixed. […] These tubes were sealed and incubated at 37 °C with shaking.
# The quenched samples were mixed briefly by vortexing and stored in a −20 °C freezer.
# Sample plates were stored refrigerated until analysis.
# The column was set to a temperature of 55 °C. […] The instrument was equipped with an electrospray ionization source (500 °C) operated in positive-ion mode.
# Peak area ratios for IS-normalized test article and control article counts were used to calculate the percent remaining relative to the time zero (T0) value. As appropriate, results were plotted and further analyzed to calculate half-life (T1/2) values.
# Mean peak ratios were used to calculate the percent remaining relative to the T0 value: % Remaining at Timex = (mean peak area ratio Tx/mean peak ratio T0) × 100.
sequence,measurement,setting,value
"LRKLRKRLLRLVGRQLEEFL [HM-10/10, LRKLRKRLLRLVGRQLEEFL]",% Protein Bound Mean ± SD,[1],15.3% and 15.3 ± 24.6%
same,% Protein Free Mean ± SD,[1],84.7 ± 24.6%
same,inhibition at 50 µM,[2],-26.4 to 42.2%
same,Inhibition of CYP450 isoenzymes at 50 µM (maximum test concentration),"[3]; all isoenzymes, +/− NADPH, with and without 30-min preincubation",No inhibition to minimal inhibition
same,Inhibition of CYP isozymes at 50 µM with pre-incubation in the presence of 1 mM NADPH,"[3]; all isozymes, pooled human liver microsomes 0.1 mg/mL",less than 30%
same,Time-dependent inhibition (TDI) of CYP450 isoenzymes,"[3]; up to 50 µM, all isoenzymes",no TDI
same,Fold Increase (Enzyme Activity) Lot HH1086,[4]; 2 µM,3.18 fold
same,Fold Increase (Enzyme Activity) Lot HH1142,[4]; 2 µM,2.82 fold
same,Fold Increase (Enzyme Activity) Lot HH1144,[4]; 2 µM,3.00 fold
same,Fold Increase (Enzyme Activity) Mean,[4]; 2 µM,3.00 fold
same,Fold Increase (Enzyme Activity) Lot HH1086,[4]; 10 µM,4.01 fold
same,Fold Increase (Enzyme Activity) Lot HH1142,[4]; 10 µM,6.36 fold
same,Fold Increase (Enzyme Activity) Lot HH1144,[4]; 10 µM,4.52 fold
same,Fold Increase (Enzyme Activity) Mean,[4]; 10 µM,4.96 fold
same,Fold Increase (Enzyme Activity) Lot HH1086,[4]; 25 µM,2.80 fold
same,Fold Increase (Enzyme Activity) Lot HH1142,[4]; 25 µM,9.29 fold
same,Fold Increase (Enzyme Activity) Lot HH1144,[4]; 25 µM,6.73 fold
same,Fold Increase (Enzyme Activity) Mean,[4]; 25 µM,6.27 fold
same,half-life at 2 µM,[5]; cryopreserved hepatocytes,10.7 min
same,"remaining at 0.5 h, 2 µM","[5]; cryopreserved hepatocytes, read-out: % Remaining at 30 min",16%
same,CLint scaled,[5]; read-out: CLint (L/hr/kg) (converted),42 L/h/kg
same,CLint scaled,[5]; read-out: CLint (mL/min/kg),41.9 L/h/kg
same,% Inhibition at 50 µM No PI + NADPH,[6],−18.0%
same,% Inhibition at 50 µM No PI − NADPH,[6],−20.7%
same,% Inhibition at 50 µM PI + NADPH,[6],0.1%
same,% Inhibition at 50 µM PI − NADPH,[6],−15.8%
same,% Inhibition at 50 µM No PI + NADPH,[7],18.7%
same,% Inhibition at 50 µM No PI − NADPH,[7],14.0%
same,% Inhibition at 50 µM PI + NADPH,[7],9.0%
same,% Inhibition at 50 µM PI − NADPH,[7],11.4%
same,half-life at 2 µM,[8],52.7 min
same,"remaining at 2 h, 2 µM",[8],21.9%

# Reference: article PMC10298982, “Stability Characterization of the Novel Anti-Cancer HM-10/10 HDL-Mimetic Peptide” (International Journal of Molecular Sciences, 2023)
